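A five-concentration, 48-hour dose response in 96-well plates underlies each endpoint, interpolated linearly between surrounding concentrations. The concentration for 50% growth inhibition is given as GI50. At the TGI there is no net growth.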
Experiments:
Experiment in all cases: DTP human tumour cell line panel, 48 h
SF-268 CNS = system: SF-268 CNS
HS 578T breast = system: HS 578T breast
MDA-MB-435 = system: MDA-MB-435
A498 renal = system: A498 renal
NCI/ADR-RES ovarian = system: NCI/ADR-RES ovarian
EKVX NSCLC = system: EKVX NSCLC
PC-3 prostate = system: PC-3 prostate
UACC-62 melanoma = system: UACC-62 melanoma
DU-145 prostate = system: DU-145 prostate
SW-620 colon = system: SW-620 colon
NCI-H226 lung = system: NCI-H226 lung
SK-MEL-5 melanoma = system: SK-MEL-5 melanoma
NCI-H522 lung = system: NCI-H522 lung
T-47D breast = system: T-47D breast
HCT-116 colon = system: HCT-116 colon
M14 melanoma = system: M14 melanoma
UO-31 renal = system: UO-31 renal
OVCAR-4 ovarian = system: OVCAR-4 ovarian
TK-10 renal = system: TK-10 renal
ACHN renal = system: ACHN renal
OVCAR-8 ovarian = system: OVCAR-8 ovarian
BT-549 breast = system: BT-549 breast
HCC-2998 colon = system: HCC-2998 colon
LOX IMVI melanoma = system: LOX IMVI melanoma
CAKI-1 renal = system: CAKI-1 renal
786-0 renal = system: 786-0 renal
KM12 colon = system: KM12 colon
SN12C renal = system: SN12C renal
OVCAR-3 ovarian = system: OVCAR-3 ovarian
SNB-19 CNS = system: SNB-19 CNS
COLO 205 colon = system: COLO 205 colon
SK-MEL-2 melanoma = system: SK-MEL-2 melanoma
HOP-62 NSCLC = system: HOP-62 NSCLC
SK-MEL-28 melanoma = system: SK-MEL-28 melanoma
SF-539 CNS = system: SF-539 CNS
RXF 393 renal = system: RXF 393 renal
U251 CNS = system: U251 CNS
MCF7 breast = system: MCF7 breast
SF-295 CNS = system: SF-295 CNS
SK-OV-3 ovarian = system: SK-OV-3 ovarian
SNB-75 CNS = system: SNB-75 CNS
NCI-H460 lung = system: NCI-H460 lung
K-562 leukemia = system: K-562 leukemia
MALME-3M melanoma = system: MALME-3M melanoma
OVCAR-5 ovarian = system: OVCAR-5 ovarian
HT29 colon = system: HT29 colon
NCI-H23 lung = system: NCI-H23 lung
HCT-15 colon = system: HCT-15 colon
IGROV1 ovarian = system: IGROV1 ovarian
MDA-MB-231 breast = system: MDA-MB-231 breast
UACC-257 melanoma = system: UACC-257 melanoma
A549 NSCLC = system: A549 NSCLC

In the case of `O=C(O)CNC(=O)C(CS)Cc1ccccc1` (centres undefined), the GI50 (SF-268 CNS) is reported as > 25 µM, the TGI (SF-268 CNS) is reported as > 25 µM and the GI50 (HS 578T breast) is reported as > 25 µM. For the same compound, the TGI (HS 578T breast) was > 25 µM, the GI50 (MDA-MB-435) was > 25 µM and the TGI (MDA-MB-435) was > 25 µM. For the same compound, the GI50 (A498 renal) was > 25 µM, the TGI (A498 renal) was > 25 µM and the GI50 (NCI/ADR-RES ovarian) was > 25 µM. For the same compound, the TGI (NCI/ADR-RES ovarian) was > 25 µM, the GI50 (EKVX NSCLC) was > 25 µM and the TGI (EKVX NSCLC) was > 25 µM. For the same compound, the GI50 (PC-3 prostate) was > 25 µM, the TGI (PC-3 prostate) was > 25 µM and the GI50 (UACC-62 melanoma) was > 25 µM. The TGI (UACC-62 melanoma) was > 25 µM, the GI50 (DU-145 prostate) was > 25 µM and the TGI (DU-145 prostate) was > 25 µM. For the same compound, the GI50 (SW-620 colon) was > 25 µM, the TGI (SW-620 colon) was > 25 µM and the GI50 (NCI-H226 lung) was > 25 µM. The TGI (NCI-H226 lung) was > 25 µM, the GI50 (SK-MEL-5 melanoma) was > 25 µM and the TGI (SK-MEL-5 melanoma) was > 25 µM. The GI50 (NCI-H522 lung) was > 25 µM, the TGI (NCI-H522 lung) was > 25 µM and the GI50 (T-47D breast) was > 25 µM. For the same compound, the TGI (T-47D breast) was > 25 µM, the GI50 (HCT-116 colon) was > 25 µM and the TGI (HCT-116 colon) was > 25 µM. The GI50 (M14 melanoma) was > 25 µM, the TGI (M14 melanoma) was > 25 µM and the GI50 (UO-31 renal) was > 25 µM. For the same compound, the TGI (UO-31 renal) was > 25 µM, the GI50 (OVCAR-4 ovarian) was > 25 µM and the TGI (OVCAR-4 ovarian) was > 25 µM. The GI50 (TK-10 renal) was > 25 µM, the TGI (TK-10 renal) was > 25 µM and the GI50 (ACHN renal) was > 25 µM. The TGI (ACHN renal) was > 25 µM, the GI50 (OVCAR-8 ovarian) was > 25 µM and the TGI (OVCAR-8 ovarian) was > 25 µM. The GI50 (BT-549 breast) was > 25 µM, the TGI (BT-549 breast) was > 25 µM and the GI50 (HCC-2998 colon) was > 25 µM. The TGI (HCC-2998 colon) was > 25 µM, the GI50 (LOX IMVI melanoma) was > 25 µM and the TGI (LOX IMVI melanoma) was > 25 µM. For the same compound, the GI50 (CAKI-1 renal) was > 25 µM, the TGI (CAKI-1 renal) was > 25 µM and the GI50 (786-0 renal) was > 25 µM. The TGI (786-0 renal) was > 25 µM, the GI50 (KM12 colon) was > 25 µM and the TGI (KM12 colon) was > 25 µM. For the same compound, the GI50 (SN12C renal) was > 25 µM, the TGI (SN12C renal) was > 25 µM and the GI50 (OVCAR-3 ovarian) was > 25 µM. The TGI (OVCAR-3 ovarian) was > 25 µM, the GI50 (SNB-19 CNS) was > 25 µM and the TGI (SNB-19 CNS) was > 25 µM. For the same compound, the GI50 (COLO 205 colon) was > 25 µM, the TGI (COLO 205 colon) was > 25 µM and the GI50 (SK-MEL-2 melanoma) was > 25 µM. The TGI (SK-MEL-2 melanoma) was > 25 µM, the GI50 (HOP-62 NSCLC) was > 25 µM and the TGI (HOP-62 NSCLC) was > 25 µM. For the same compound, the GI50 (SK-MEL-28 melanoma) was > 25 µM, the TGI (SK-MEL-28 melanoma) was > 25 µM and the GI50 (SF-539 CNS) was > 25 µM. The TGI (SF-539 CNS) was > 25 µM, the GI50 (RXF 393 renal) was 0.79 µM and the TGI (RXF 393 renal) was > 25 µM. The GI50 (U251 CNS) was > 25 µM, the TGI (U251 CNS) was > 25 µM and the GI50 (MCF7 breast) was > 25 µM. For the same compound, the TGI (MCF7 breast) was > 25 µM, the GI50 (SF-295 CNS) was > 25 µM and the TGI (SF-295 CNS) was > 25 µM. For the same compound, the GI50 (SK-OV-3 ovarian) was > 25 µM, the TGI (SK-OV-3 ovarian) was > 25 µM and the GI50 (SNB-75 CNS) was > 25 µM. The TGI (SNB-75 CNS) was > 25 µM, the GI50 (NCI-H460 lung) was > 25 µM and the TGI (NCI-H460 lung) was > 25 µM. For the same compound, the GI50 (K-562 leukemia) was > 25 µM, the TGI (K-562 leukemia) was > 25 µM and the GI50 (MALME-3M melanoma) was > 25 µM. For the same compound, the TGI (MALME-3M melanoma) was > 25 µM, the GI50 (OVCAR-5 ovarian) was > 25 µM and the TGI (OVCAR-5 ovarian) was > 25 µM. For the same compound, the GI50 (HT29 colon) was > 25 µM, the TGI (HT29 colon) was > 25 µM and the GI50 (NCI-H23 lung) was > 25 µM. The TGI (NCI-H23 lung) was > 25 µM, the GI50 (HCT-15 colon) was > 25 µM and the TGI (HCT-15 colon) was > 25 µM. The GI50 (IGROV1 ovarian) was > 25 µM, the TGI (IGROV1 ovarian) was > 25 µM and the GI50 (MDA-MB-231 breast) was > 25 µM. The TGI (MDA-MB-231 breast) was > 25 µM, the GI50 (UACC-257 melanoma) was > 25 µM and the TGI (UACC-257 melanoma) was > 25 µM. The GI50 (A549 NSCLC) was > 25 µM and the TGI (A549 NSCLC) was > 25 µM.
